Source: patent US10870102B2, “Radical generating catalyst, method for producing radical, method for producing oxidation reaction product, drug, and drug for agriculture and livestock” (ACENET INC., priority 2015, dated 2020)
“And” between values parts separate entries of the source, which are not always exact repeats. Equal values may be shown once. Read-outs that look alike come from different tables or passages of the source.

Legend:
[1] = Lewis acidity: rate constant of reaction between CoTPP and oxygen in the presence of a Lewis acid; format: physicochemical
Staphylococcus aureus = assay: MIC/MBC determination, microplate; format: cell-based; settings: S. aureus; 37° C., 24 hours
Escherichia coli MV1184 = assay: MIC/MBC determination, microplate; format: cell-based; settings: E. coli; 37° C., 24 hours

CC(C)(C)CC(C)(C)c1ccc(OCCOCC[N+](C)(C)Cc2ccccc2)cc1.[Cl-] [benzetonium chloride, benzethonium chloride]
kcat [1]: 0.24 and 0.24 M^−2 s^−1

sodium chlorite [compound 6]
MIC (Staphylococcus aureus): 40 ppm | MBC (Escherichia coli MV1184): 50 ppm | MIC (Escherichia coli MV1184): 30 ppm

CCCC[N+](CCCC)(CCCC)CCCC.F[P-](F)(F)(F)(F)F [tetrabutylammonium hexafluorophosphate]
kcat [1]: >0.1 M^−2 s^−1

sodium chlorite [Comp. Ex. 7]
MIC (Escherichia coli MV1184): 25< ppm

benzalkonium chloride
kcat ([1]; rate constant of reaction between CoTPP and oxygen in the presence of a Lewis acid, MeCN, saturated O2, room temperature): 0.18 M^−2 s^−1
